Source: ChEMBL document CHEMBL1156607, “A new multi-gram synthetic route to labeling precursors for the D(2/3) PET agent 18F-fallypride” (Bioorg Med Chem Lett, 2008)

Molecular target: D(2) dopamine receptor (Homo sapiens, UniProt P14416)
Assay: Antagonist activity at dopamine D2 receptor
Type: functional

D(2) dopamine receptor, sequence (P14416 whole entry): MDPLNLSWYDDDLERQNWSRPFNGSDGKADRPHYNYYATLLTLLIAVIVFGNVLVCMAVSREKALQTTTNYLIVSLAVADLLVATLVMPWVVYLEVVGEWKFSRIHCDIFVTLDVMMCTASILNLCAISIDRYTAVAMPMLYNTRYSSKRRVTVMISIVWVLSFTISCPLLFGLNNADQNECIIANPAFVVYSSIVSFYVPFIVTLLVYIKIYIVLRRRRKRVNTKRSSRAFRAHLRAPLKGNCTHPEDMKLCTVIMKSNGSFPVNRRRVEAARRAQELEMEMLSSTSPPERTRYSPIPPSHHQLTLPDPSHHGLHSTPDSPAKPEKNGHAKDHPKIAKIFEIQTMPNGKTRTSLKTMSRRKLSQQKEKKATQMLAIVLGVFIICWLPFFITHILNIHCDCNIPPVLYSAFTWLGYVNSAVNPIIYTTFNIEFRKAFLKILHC

SMILES	IC50 [nM]
C=CCN1CCC[C@H]1CNC(=O)c1cc(CCCCl)cc(OC)c1OC	17.1
C=CCN1CCC[C@H]1CNC(=O)c1cc(CCCF)cc(OC)c1OC [FALLYPRIDE]	5
